# Reference: patent US20140051729A1, “COMPOSITIONS AND METHODS FOR TREATING DEGENERATIVE MUSCLE CONDITIONS” (University of Washington, priority 2011, published 2014)
# Assays:
# [1] = system: plasma creatine kinase (CK) activity; assay: Plasma creatine kinase assay in mdx mice; assay type: in vivo, mouse; conditions: 5-month-old mdx males, day 4 post CTX, vs vehicle
# Description: The effects of THI in the dystrophic mdx mouse model were studied. […] THI was administered intraperitoneally (IP) to three groups of mdx mice. Right tibialis anterior (TA) and quadriceps muscles were uninjured, while left counterparts were injured using CTX, a well characterized model of acute injury where initial muscle destruction is followed by a rapid myogenic response. The mdx mice were injected with THI, or PBS as a vehicle control, immediately following injury with CTX 5 times during a 3-day period (FIG. 3a). In the first group (N=6, 5-month-old males) the mdx mice were sacrificed at day 4 to analyze the efficacy of the administration of THI for increasing S1P levels in spleen, CTX injured quadriceps, and uninjured quadriceps. The effects of THI administration on the plasma creatine kinase (CK) activity level was also measured.
# Mdx mouse plasma samples were diluted 1:50 and total creatine kinsase activity was measured by an enzymatic rate method using a Beckman Coulter instrument. Relative levels were then normalized to body weight.
# mdx mice = assay: Histopathology of CTX injured and uninjured muscles of aged mdx mice after IP THI; assay type: in vivo, mouse
# Description: Muscle repair in mdx mice become impaired during aging resulting in muscle atrophy and dystrophy. The effects of THI on the histopathology were assessed in injured and uninjured muscles from two groups of aged mdx mice (n=6, 11 month-old females and n=7, 16 month-old males). In this experiment, right TAs and quadriceps muscles were uninjured, while left counterparts were injured using CTX. The mdx mice were injected with THI, or PBS as a vehicle control, immediately following injury with CTX 5 times during a 3-day period. Injured and uninjured muscles were harvested 18 days post injury to survey the effects of THI on muscle repair. […] Injured muscles were lighter than uninjured muscles in vehicle treated mice, an approximate weight loss of 20% (*p<0.05).
# The left TAs and quadriceps of six, 10 month old female mdx4cv mice were injected with 50 μl and 100 μl CTX respectively. Three mice were injected IP with 0.15 mg/ml THI in PBS, twice daily (injections 8 hours apart) immediately after and for the first three days following injury. The three remaining animals were injected IP with PBS as vehicle controls. 1% Evans Blue dye was injected IV on day 17 post CTX, to label persistently damaged (dye permeable) muscle fibers. Animals were euthanized 18 days post injury and muscles were frozen under liquid nitrogen cooled isopentane in optimal cutting temperature (OCT). All myofibers were measured for the minimum diameters on the cross-sections of mouse quadriceps muscle using image J software. 750˜850 myofibers were counted for three mice treated with PBS or THI with or without CTX injury.
# All mouse muscles were frozen directly in OCT with liquid nitrogen cooled in isopentane and sections of 8 μm thickness were obtained. Tissue for x-gal staining, was fixed for 10 min with 2% formaldehyde/0.2% glutaraldehyde and incubated overnight at 37° C. with staining buffer (PBS with 1 mg/ml x-gal, 5 mM potassium ferricyanide, 5 mM potassium ferrocyanide, and 2 mM […] (all from Fisher). Oil Red-O and Picrosirius red staining were done following established protocols. For eMyHC staining, tissue was first fixed with 2% formaldehyde for 5 min, treated with streptavidin/avidin blocking kit (Vector labs), and blocked with IgG block from M.O.M kit (Vector Labs) for 5 hrs at 4° C. Following blockade, concentrated mouse anti-eMyHC (clone F1.652 received at 357 μg/ml IgG) obtained from the developmental studies hybridoma bank (DHSB, University of Iowa) was administered at 1:400 dilution, overnight at 4° C. The remainder of the staining was done following mouse-on-mouse (M.O.M) kit staining instructions. For laminin staining tissue was also fixed with 2% formaldehyde for 5 min, and then treated with polyclonal rabbit anti-laminin (Sigma) for 1 hr at a 1:400 dilution in PBS+1% BSA. Following washes, Alexa Fluor 488 conjugated goat anti-rabbit IgG (Invitrogen) was administered at 1:800 dilution for 1 hr. Controls omitting the primary antibody were included with all staining. Staining quantifications were all done using ImageJ v1.40 (Wayne Rasband, NIH) cell counter plugin (Kurt De Vos, University of Sheffield). Calculations, statistics, and graphs were generated with Microsoft Excel. Brightfield photographs were captured using either a Fisher Micromaster digital inverted or upright microscopes with Micron software. Fluorescent photographs were captured with a monochromatic camera using a Zeiss Axiovert 200 microscope. Individual fluorescent channels were colored and merged using Adobe Photoshop CS2. Brightness contrast levels were adjusted to increase visibility and reduce background in most photographs.
# Both stainings were done using freshly frozen mdx muscles. Pax7 staining was done as outlined by Clever et al., with slight modification (Clever J L, et al. Am J Physiol Cell Physiol. 2010; 298:C1087-C1099). Sections were fixed overnight in 4% formaldehyde (from PFA powder) at 4° C. […]
# [2] = 11MO and 16MO mdx mice, Oil Red-O
# [3] = 11MO mdx mice, dye injected day 17 post injury
# [4] = 11 month-old mdx mice, vs vehicle
# [5] = aged mdx mice, 18 days post CTX injury, vs vehicle
compound,measurement,setting,value
"CC(=O)c1ncc([C@@H](O)[C@H](O)[C@H](O)CO)[nH]1 [THI, 1-[5-[(1R,2S,3R)-1,2,3,4-tetrahydroxybutyl]-1H-imidazol-2-yl]-ethanone]",plasma CK levels,[1],reduced
same,ratio of fat deposition in injured TAs over uninjured contralateral TAs,mdx mice; [2],significantly reduced in THI treated vs. control animals in 11MO (*) but not 16 MO mdx mice
same,ratio of injured over uninjured fat deposits in quadriceps,mdx mice; [2],significantly reduced in 16MO (#) but not in the 11MO mdx mice
same,Evans Blue positive fibers in injured quadriceps over entire cross-sectional area,mdx mice; [3],< 5
same,Evans Blue positive fibers in uninjured contralateral quadriceps,mdx mice; [3],almost zero
same,mean number of satellite cells (Pax7+ nuclei) in limb muscles (TAs and Quadriceps),mdx mice; [4],significant increase
same,"minimum fiber diameter, uninjured and injured quadriceps and diaphragms",mdx mice; [4],significant increase
same,"ratio of dry weight of CTX injured over uninjured quadriceps, normalized to body weight","mdx mice; 16 month-old mdx males, 18 days post injury",ratio close to one
same,"muscle fiber size, uninjured quadriceps","mdx mice; 16 month-old mdx males, vs vehicle",significant increase
same,overall histological muscle morphology of injured muscles,"mdx mice; aged mdx mice, 18 days post CTX injury",more organized
same,average fat deposition in injured TAs (Oil Red-O),mdx mice; [5],significantly lower average fat deposition
same,fibrosis in injured TAs and quadriceps muscles (Picrosirius Red),mdx mice; [5],significantly reduced fibrosis
